Among the data in ChEMBL document CHEMBL1201862, “PubChem BioAssay data set” (2004) are EC50, IC50 and AC50 values, retold here.

Assay [1] can be described thus: cells. The class given is functional, cell-based.
In assay [2] the target is Neurotensin receptor type 1 (Homo sapiens, UniProt P30989). The class given is functional.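 Also: Image-based confirmatory dose-response assay measuring agonist activity at NTR1; NTR1-expressing U2OS osteosarcoma cells imaged for beta-arrestin GFP spot formation; agonist potency where compounds increase beta-arrestin recruitment.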
Sequence of Neurotensin receptor type 1 (P30989 whole entry): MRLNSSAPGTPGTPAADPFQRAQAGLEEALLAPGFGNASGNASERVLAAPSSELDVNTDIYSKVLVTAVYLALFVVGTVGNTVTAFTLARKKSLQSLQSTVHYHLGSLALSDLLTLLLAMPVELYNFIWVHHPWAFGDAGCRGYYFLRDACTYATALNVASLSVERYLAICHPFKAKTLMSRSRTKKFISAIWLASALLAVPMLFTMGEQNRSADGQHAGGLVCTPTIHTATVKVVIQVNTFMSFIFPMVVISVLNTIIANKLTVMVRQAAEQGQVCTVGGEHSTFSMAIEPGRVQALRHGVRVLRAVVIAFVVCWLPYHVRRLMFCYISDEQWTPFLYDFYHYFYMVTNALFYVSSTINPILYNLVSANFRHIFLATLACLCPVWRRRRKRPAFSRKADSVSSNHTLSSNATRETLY
The target of another assay is Beta-galactosidase (Escherichia coli, UniProt Q8VNN2). Description: PubChem AID 485352. The class given is functional.
Sequence of Beta-galactosidase (Q8VNN2 whole entry): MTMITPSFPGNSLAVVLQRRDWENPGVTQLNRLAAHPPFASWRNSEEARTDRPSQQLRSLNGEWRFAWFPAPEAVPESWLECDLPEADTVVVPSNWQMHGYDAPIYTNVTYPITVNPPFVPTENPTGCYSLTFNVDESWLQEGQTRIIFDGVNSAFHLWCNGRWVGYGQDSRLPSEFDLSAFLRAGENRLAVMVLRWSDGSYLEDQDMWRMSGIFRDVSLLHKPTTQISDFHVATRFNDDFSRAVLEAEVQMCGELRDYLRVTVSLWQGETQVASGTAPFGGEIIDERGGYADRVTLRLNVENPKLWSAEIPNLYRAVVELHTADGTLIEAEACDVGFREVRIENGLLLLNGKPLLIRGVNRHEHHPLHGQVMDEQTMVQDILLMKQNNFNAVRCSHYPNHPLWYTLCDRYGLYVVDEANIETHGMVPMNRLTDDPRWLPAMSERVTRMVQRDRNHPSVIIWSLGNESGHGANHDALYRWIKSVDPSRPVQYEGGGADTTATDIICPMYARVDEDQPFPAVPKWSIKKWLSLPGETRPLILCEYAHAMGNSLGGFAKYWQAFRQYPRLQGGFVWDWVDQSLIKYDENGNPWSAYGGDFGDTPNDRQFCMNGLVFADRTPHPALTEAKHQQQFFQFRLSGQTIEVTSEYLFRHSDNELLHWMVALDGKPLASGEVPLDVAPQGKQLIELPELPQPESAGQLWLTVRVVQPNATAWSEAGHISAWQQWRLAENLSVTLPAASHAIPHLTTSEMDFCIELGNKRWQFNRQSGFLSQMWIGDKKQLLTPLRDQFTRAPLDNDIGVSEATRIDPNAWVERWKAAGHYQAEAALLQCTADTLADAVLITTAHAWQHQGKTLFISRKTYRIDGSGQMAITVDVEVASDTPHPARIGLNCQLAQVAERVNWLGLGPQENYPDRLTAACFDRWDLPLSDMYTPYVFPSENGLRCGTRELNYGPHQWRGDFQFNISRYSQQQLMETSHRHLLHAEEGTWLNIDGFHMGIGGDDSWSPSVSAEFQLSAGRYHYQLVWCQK
A short description of assay [3]: cells. The class given is functional, cell-based. The source holds these as a separate data set.
In assay [4] the target is T1, Type-1 angiotensin II receptor (Homo sapiens, UniProt P30556).
T1 sequence (P30556 whole entry): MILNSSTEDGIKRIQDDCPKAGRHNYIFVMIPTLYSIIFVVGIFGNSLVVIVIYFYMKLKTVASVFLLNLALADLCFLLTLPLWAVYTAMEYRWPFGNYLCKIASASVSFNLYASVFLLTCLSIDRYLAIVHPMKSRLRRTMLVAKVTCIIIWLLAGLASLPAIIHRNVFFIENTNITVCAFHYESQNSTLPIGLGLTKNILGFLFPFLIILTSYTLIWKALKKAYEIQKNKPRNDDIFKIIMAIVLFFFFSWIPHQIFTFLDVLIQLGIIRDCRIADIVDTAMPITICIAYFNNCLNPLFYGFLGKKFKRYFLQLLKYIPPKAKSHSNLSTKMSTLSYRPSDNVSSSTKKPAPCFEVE
Description: AT1 receptor antagonists, dose response, selectivity assay for APJ receptor antagonist project, cell-based, uHTS hits (AID 463214).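 Also: antagonist potency against angiotensin II stimulated AT1 response.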 The class given is functional.

Assay [5] is described as follows: Shn3 3'UTR reporter inhibitors, dose response, cell-based, Clone20 osteoblasts, firefly luciferase, cherry-picked (AID 624132).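 Also: firefly luciferase luminescence from reporter carrying the Shn3 3'UTR in osteoblasts.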 Type of assay: functional.
For assay [6], the target named is T2, Heat shock factor protein 1 (Mus musculus, UniProt P38532).
T2 sequence (P38532 whole entry): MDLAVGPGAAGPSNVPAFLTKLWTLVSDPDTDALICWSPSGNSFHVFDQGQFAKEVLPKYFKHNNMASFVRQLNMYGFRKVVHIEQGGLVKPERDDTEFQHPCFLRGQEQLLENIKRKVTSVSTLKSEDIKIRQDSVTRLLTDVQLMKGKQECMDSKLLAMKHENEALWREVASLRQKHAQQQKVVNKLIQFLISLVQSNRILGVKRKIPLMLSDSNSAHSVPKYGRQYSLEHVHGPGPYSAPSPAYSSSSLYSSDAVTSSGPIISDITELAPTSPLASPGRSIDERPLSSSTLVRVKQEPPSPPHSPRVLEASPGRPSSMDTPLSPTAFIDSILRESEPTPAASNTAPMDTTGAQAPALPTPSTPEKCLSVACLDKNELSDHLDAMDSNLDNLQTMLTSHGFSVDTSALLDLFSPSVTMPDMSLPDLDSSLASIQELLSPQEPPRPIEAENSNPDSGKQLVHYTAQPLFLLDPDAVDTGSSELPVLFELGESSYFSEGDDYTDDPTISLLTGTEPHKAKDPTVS
Description: inhibition of MG132-induced HSE-luciferase signal, confirmation, cell-based, NIH3T3, luminescence, dose retest (AID 2382).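 Also: NIH3T3 fibroblasts with HSF1-driven luciferase reporter stressed by proteasome inhibitor MG132; luminescence from HSF1-driven luciferase expression after 8 hours of MG132 stress.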 The class given is functional.

Assay [7] can be described thus: control 3'UTR Renilla luciferase suppression, dose response, counter-screen for Shn3 inhibitor project, cell-based, Clone20-Shn3RL, cherry-picked (AID 624133). The class given is functional. A general note: The purpose of a counterscreen is to sort out artefacts and off-target activity.
A short description of assay [8]: HepG2 cell cytotoxicity, dose response, cytotoxicity control for Shn3 inhibitor project, CellTiter-Glo, cherry-picked (AID 624134). The class given is functional, cell-based. Background: ATP-based viability assays read luminescence as a measure of living cells.
Assay [9] has as its target Metabotropic glutamate receptor 4 (Homo sapiens, UniProt Q14833). Description: Modulation of the Metabotropic Glutamate Receptor mGluR4: Potency at human mGluR4. Modulation of intracellular Ca2+ using Fluo-4, AM, in CHO expressing recombinant receptor [Related pubchem assays (depositor defined):AID2437, AID2807]. The class given is functional, cell-based.
The target in assay [10] is T3, Sentrin-specific protease 7 (Homo sapiens, UniProt Q9BQF6).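 Also: Luminescence-based dose-response confirmation of ultra-high-throughput screening hits, measuring inhibition of SENP7.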
T3 sequence (Q9BQF6 whole entry): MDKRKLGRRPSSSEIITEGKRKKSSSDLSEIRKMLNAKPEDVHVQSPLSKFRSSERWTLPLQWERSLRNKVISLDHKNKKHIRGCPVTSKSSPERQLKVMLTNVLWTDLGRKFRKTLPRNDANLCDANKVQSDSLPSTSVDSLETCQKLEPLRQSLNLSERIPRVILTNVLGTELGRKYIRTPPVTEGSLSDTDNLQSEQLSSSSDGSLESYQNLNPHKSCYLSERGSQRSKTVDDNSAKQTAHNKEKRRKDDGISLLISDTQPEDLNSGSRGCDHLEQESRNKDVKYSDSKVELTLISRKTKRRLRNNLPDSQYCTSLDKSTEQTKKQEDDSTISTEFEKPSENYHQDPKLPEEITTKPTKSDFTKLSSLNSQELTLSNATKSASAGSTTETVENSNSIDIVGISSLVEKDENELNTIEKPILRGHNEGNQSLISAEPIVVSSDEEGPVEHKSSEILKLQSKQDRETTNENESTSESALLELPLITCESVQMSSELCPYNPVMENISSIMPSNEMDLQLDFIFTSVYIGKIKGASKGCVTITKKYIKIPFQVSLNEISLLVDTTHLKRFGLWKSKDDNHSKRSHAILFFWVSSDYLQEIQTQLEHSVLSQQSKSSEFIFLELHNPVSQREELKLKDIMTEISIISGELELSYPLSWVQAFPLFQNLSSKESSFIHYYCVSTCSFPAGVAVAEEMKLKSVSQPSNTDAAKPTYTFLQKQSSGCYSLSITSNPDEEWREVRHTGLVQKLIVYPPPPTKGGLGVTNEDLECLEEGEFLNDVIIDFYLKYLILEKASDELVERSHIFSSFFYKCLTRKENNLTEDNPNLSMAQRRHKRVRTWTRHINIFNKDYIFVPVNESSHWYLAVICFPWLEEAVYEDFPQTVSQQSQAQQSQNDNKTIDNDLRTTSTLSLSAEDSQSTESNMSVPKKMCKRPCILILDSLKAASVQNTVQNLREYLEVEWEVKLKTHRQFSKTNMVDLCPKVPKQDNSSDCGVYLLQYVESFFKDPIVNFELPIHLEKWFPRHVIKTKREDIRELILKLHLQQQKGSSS
Type of assay: functional.

The target of a further assay is T4, Caspase-3 (Homo sapiens, UniProt P42574).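 Also: Dose-response selectivity test against caspase-3 for candidate inhibitors of sentrin-specific proteases (SENPs).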
T4 sequence (P42574 whole entry): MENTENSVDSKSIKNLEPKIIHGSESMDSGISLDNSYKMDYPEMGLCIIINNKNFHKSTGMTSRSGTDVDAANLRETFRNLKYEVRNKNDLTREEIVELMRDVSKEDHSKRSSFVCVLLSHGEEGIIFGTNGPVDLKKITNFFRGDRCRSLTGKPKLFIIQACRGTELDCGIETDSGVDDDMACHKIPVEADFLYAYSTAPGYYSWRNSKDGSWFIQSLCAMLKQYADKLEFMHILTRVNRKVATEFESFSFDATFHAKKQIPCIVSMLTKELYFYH
Type of assay: functional.

Assay [11] addresses T5, Sentrin-specific protease 8 (Homo sapiens, UniProt Q96LD8).
T5 sequence (Q96LD8 whole entry): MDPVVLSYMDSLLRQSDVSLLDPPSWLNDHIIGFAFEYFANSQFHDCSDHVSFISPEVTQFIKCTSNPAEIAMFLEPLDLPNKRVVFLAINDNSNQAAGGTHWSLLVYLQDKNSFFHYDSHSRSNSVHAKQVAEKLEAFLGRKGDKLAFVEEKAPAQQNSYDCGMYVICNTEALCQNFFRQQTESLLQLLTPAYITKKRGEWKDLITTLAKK
Type of assay: functional.

The target in assay [12] is Metabotropic glutamate receptor 4 (Rattus norvegicus, UniProt P31423). Description: Modulation of the Metabotropic Glutamate Receptor mGluR4: Rat PAM Potency. [Related pubchem assays (depositor defined):AID2437, AID2807]. The class given is functional.
Sequence of Metabotropic glutamate receptor 4 (Rattus norvegicus, UniProt P31423) (P31423 whole entry): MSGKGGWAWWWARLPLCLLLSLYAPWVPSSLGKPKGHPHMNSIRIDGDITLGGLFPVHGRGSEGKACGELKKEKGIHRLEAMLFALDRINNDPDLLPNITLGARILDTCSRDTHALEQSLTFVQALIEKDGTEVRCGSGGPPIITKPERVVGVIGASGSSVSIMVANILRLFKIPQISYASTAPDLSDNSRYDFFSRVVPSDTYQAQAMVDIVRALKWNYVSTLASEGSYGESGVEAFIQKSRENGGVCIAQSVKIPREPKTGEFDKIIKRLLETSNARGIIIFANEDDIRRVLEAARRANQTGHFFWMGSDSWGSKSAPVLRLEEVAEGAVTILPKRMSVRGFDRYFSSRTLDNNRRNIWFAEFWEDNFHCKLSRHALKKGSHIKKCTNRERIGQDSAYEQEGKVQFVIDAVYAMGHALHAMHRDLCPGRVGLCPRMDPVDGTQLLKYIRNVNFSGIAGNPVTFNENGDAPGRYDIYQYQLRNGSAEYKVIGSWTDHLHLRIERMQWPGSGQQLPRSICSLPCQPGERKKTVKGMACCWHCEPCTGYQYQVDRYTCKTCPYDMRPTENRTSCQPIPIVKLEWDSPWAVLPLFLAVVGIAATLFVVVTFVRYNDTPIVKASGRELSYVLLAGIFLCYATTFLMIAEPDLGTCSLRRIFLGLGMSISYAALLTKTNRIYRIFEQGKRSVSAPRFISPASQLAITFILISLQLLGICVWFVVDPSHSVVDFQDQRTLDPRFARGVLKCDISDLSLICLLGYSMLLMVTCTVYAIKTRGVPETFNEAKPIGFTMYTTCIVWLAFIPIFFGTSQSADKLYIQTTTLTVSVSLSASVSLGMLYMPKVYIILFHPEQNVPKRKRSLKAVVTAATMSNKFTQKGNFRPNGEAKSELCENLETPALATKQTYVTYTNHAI
A further assay deals with T6, Protein skinhead-1 (Caenorhabditis elegans, UniProt P34707).
T6 sequence (P34707 whole entry): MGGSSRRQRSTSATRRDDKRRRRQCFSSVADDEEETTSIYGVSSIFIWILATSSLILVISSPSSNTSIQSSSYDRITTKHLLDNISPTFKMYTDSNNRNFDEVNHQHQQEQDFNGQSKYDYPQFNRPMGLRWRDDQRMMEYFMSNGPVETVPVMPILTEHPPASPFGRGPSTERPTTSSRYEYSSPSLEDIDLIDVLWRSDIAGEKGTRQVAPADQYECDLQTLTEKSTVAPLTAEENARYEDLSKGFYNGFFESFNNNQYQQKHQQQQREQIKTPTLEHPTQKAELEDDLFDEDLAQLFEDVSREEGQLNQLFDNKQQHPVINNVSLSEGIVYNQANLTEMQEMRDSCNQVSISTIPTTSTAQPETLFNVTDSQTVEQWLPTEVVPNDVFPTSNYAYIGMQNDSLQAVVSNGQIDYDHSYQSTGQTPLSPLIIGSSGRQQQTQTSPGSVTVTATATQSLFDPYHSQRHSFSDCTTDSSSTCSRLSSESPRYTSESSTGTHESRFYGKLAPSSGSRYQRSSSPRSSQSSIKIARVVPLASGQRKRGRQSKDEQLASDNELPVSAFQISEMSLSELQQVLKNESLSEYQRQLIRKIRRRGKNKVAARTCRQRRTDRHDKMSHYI
Type of assay: functional.

For assay [13], the target named is T7, Sentrin-specific protease 6 (Homo sapiens, UniProt Q9GZR1).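 Also: Luminescence-based dose-response confirmatory assay of SENP6 inhibition, following up an ultra-high-throughput screen.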
T7 sequence (Q9GZR1 whole entry): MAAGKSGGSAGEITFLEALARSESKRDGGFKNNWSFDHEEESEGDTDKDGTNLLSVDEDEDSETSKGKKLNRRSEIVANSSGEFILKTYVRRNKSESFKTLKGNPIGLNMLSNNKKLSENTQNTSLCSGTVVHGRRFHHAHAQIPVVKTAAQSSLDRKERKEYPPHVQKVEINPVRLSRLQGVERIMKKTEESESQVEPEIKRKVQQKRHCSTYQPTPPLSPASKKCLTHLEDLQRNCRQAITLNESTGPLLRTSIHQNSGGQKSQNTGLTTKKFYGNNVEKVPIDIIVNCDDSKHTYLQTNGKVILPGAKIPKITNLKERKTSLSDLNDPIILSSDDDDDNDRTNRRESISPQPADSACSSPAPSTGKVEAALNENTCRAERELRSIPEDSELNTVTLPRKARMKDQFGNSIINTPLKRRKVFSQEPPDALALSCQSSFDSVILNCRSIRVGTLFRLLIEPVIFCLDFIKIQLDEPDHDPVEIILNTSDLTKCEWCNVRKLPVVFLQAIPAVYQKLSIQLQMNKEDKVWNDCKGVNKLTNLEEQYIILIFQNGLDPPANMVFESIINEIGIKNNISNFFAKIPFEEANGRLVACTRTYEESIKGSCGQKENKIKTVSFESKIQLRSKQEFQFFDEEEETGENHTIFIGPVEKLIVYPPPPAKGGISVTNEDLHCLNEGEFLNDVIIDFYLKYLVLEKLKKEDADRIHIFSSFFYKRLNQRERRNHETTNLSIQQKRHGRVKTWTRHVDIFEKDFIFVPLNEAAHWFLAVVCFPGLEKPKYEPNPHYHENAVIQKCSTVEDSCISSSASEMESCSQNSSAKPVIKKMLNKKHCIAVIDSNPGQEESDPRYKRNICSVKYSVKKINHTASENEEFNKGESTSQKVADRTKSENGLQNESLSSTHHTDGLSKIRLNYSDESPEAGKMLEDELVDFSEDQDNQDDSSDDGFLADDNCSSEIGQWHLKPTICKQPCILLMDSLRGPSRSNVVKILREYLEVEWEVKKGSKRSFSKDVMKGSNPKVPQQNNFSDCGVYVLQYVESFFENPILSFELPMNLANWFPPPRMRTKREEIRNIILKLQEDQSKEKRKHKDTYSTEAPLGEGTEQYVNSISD
The class given is functional.

The source made the active and inactive calls.

The term EC50 denotes the concentration at which the effect is half-maximal. Usually IC50 stands for the concentration that inhibits the measured activity by half. As a reminder, the AC50 is the concentration giving half of the maximal activity seen.

Sequence of Metabotropic glutamate receptor 4 (Homo sapiens, UniProt Q14833) (Q14833 whole entry): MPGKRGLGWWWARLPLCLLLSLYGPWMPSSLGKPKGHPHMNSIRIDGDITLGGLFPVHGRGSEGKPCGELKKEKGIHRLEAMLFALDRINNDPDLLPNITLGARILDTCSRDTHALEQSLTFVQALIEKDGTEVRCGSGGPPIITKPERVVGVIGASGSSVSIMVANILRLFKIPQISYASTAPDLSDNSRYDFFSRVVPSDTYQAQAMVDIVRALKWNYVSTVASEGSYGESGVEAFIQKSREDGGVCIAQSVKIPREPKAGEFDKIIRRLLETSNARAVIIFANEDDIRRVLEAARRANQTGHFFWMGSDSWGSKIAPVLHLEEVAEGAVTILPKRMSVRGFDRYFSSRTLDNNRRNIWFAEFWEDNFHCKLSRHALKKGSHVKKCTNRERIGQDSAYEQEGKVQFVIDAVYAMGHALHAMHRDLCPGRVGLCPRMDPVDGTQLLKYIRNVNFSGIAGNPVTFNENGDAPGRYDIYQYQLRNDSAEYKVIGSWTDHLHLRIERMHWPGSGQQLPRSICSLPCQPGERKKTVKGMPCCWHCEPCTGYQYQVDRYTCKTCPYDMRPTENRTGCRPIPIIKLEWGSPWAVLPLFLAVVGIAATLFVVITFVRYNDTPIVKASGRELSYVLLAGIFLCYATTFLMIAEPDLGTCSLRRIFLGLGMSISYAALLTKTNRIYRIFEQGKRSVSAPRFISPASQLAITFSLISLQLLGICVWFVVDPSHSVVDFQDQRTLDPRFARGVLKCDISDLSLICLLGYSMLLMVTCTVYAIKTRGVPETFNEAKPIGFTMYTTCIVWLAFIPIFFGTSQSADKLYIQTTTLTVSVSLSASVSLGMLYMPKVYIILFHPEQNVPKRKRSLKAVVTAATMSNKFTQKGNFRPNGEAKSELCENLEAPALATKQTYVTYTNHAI

As for `CC(=O)OCCCNc1cc(Sc2ccc(C)cc2)c2nonc2c1[N+](=O)[O-]`, the EC50 in the assay “cells [1]” was > 350 µM (not active); in [2], 5.83 µM (active); on Beta-galactosidase it was > 40 µM (inactive); in “cells [3]”, > 350 µM (not active); in assay [6] it was > 195 µM (not active). Further, in assay [4], the IC50 is 1.56 µM (active). For the same molecule, the half-maximal activity concentration (AC50) was 1.1 µM (active) in assay [5], 12.4 µM (active) in assay [7] and > 70 µM (inactive) in assay [8].

Turning to `O=C(Nc1ccc(Cl)c(Cl)c1)c1ccco1`, the concentration for a half-maximal effect (EC50) in [9] is 4.54 µM (active); in [12], 3.58 µM (active). Besides, the half-maximal inhibitory concentration (IC50) in assay [10] was 5.24 µM (active); at Caspase-3, 17 µM (active); in [11], 21.7 µM (active); at Protein skinhead-1, 24.4 µM (active); in [13] it was 18.3 µM (active).
